The source of these data is paper PMC7998669, “7-(2-Anilinopyrimidin-4-yl)-1-benzazepin-2-ones Designed by a “Cut and Glue” Strategy Are Dual Aurora A/VEGF-R Kinase Inhibitors” (Molecules, 2021).

In one data set the test system is Aurora A. The arrangement: method as in PMID 27406026. To be noted: cited from earlier work.
A short description of data set [1]: kinetic solubility by nephelometry. Format: physicochemical. To be noted: phosphate buffer, 25 °C, pH 7.4, aqueous buffer, kinetic from dmso stock, phosphate buffer pH 7.4, 1% DMSO, mean of two measurements, range in brackets. As for the experimental part:
The kinetic solubility of test compounds was determined by nephelometry. Dilution series of test compounds in DMSO with eight to ten different concentrations were prepared. The dilutions were pipetted (2 µL) into the cavities of a 96 well plate (CorningTM UV-transparent flat-bottom microtiter plate; Corning Incorporated, Kennebunk, ME, USA). A phosphate buffer solution pH 7.4 (198 µL) was added, so that the DMSO concentration in the measured solutions was 1%. Three wells were filled with DMSO and phosphate buffer pH 7.4 (2:198) and measured as blank values. The 96 well plate prepared in this way was measured with the NEPHELOstar® Plus nephelometer (BMG Labtech GmbH, Ortenberg, Germany, software: Omega 5.11) at a temperature of 25 °C. Previously, the plate was shaken at 500 rpm for 10 s and the laser intensity was set to 80%. The beam focus was set to 2.50 mm. If the test substance is completely soluble, only a scattering close to the blank value is detected. As soon as a critical concentration is reached in which the kinetic solubility of the test compound is exceeded, solid particles precipitate. Undissolved particles in the sample scatter the laser beam. The intensity of the scattered light is determined, which is proportional to the number of particles in the solution. The blank values were determined and subtracted from the measured values of the test compounds. By measuring different concentrations of the test substances, different intensities of the scattered light, indicated as RNU (relative nephelometric units), were determined. Kick off curves were obtained by plotting concentrations against the RNU values. The point of intersection of the horizontal and of the ascending part of the kick-off curve indicated the kinetic solubility concentration.

For another data set, the target named is T1, Aurora-B (Homo sapiens, UniProt Q96GD4).
T1 construct: host or cells: Sf9 (baculovirus)
Put plainly: radiometric 33PanQinase protein kinase assay. Format: biochemical. To be noted: radiometric assay, 1 µM ATP. The protocol:
(§1) The inhibitory activity of prototype 2a was determined in a panel of 24 tumor-relevant protein kinases using a radiometric assay. Only the kinases Aurora A, VEGF-R2 and VEGF-R3 were inhibited with single digit micromolar IC50 values (Table 2). Structural modifications were then implemented, particularly directed to improve inhibition of Aurora A. The so-designed congeners with small substituents at the aniline ring 2b–2n were examined for inhibition of Aurora A and of VEGF-R2, VEGF-R3 and Aurora B for comparison (Table 3).
(§2) The screening for protein kinase inhibition was performed with the radiometric ^33Panqinase activity assay at Reaction Biology Europe GmbH (Freiburg) using a robotic system (Beckmann Coulter/SagianRoboter) and 96-well plates (FlashPlates, Perkin/Elmer/NEN, Boston, MA, USA). In brief, the transfer of ^33P-phosphate into the substrate was measured with a microplate scintillation counter (Microbeta Trilux, Wallace). Protein kinases were expressed in Sf9 cells as recombinant glutathione S-transferase (GST) or polyhistidine (His)-tagged proteins in baculovirus. Isolation and purification of expressed kinases were performed with affinity chromatography by using GSH agarose (Sigma) or Ni-NTA agarose (Qiagen). The standard solution for each enzyme contained: 60 mM HEPES-NaOH (pH 7.5), 3 mM MgCl2, 3 µM sodium orthovanadate, 1.2 mM DTT, 50 µg/mL PEG20000 and 1 µM [γ-^33P]-ATP (approximately 5 × 10^5 cpm per well). In chronological order the reaction mixture was prepared: 20 µL standard solution, 5 µL ATP solution in water, 5 µL of the compound in 10% DMSO and 20 µL of enzyme/substrate mixture (50:50). Each kinase contained different substrates in different concentrations: 125 ng/50 µL Poly(Glu, Tyr)4:1 for 20 ng/50 µL IGF1-R, 25 ng/50 µL IGF1-R, 20 ng/50 µL EGF-R, 25 ng/50 µL EGF-R, 40 ng/50 µL EGF-R, 10 ng/50 µL EPHB4, 20 ng/50 µL EPHB4, 200 ng/50 µL ERBB2, 10 ng/50 µL SRC, 100 ng/50 µL FAK, 200 ng/50 µL FAK, 50 ng/50 µL VEGF-R2, 100 ng/50 µL VEGF-R3, 200 ng/50 µLTIE2; 250 ng/50 µL Poly(Glu, Tyr)4:1 for 200 ng/50 µL TIE2; 500 ng/50 µL tetra (LRRWSLG) for 50 ng/50 µL Aurora-A, 25 ng/50 µL PAK4, 25 ng/50 µL PDK1; 250 ng/50 µL tetra (LRRWSLG) for 50 ng/50 µL Aurora-B, 200 ng/50 µL Aurora-B; 125 ng/50 µL Histon H1 for 100 ng/50 µL CDK2/CycA; 250 ng/50 µL Rb-CTF for 50 ng/50 µL CDK/CycD1; 500 ng/50 µL Rb-CTF for 50 ng/50 µL CDK4/CycD1; 125 ng/50 µL Poly(ala, Glu, Lys, Tyr)6:2:5:1 for 25 ng/50 µL INS-R, 50 ng/50 µL PDGFR-beta, 100 ng/50 µL PDGFR-beta, 100 ng/50 µL FLT3, 150 ng/50 µL FLT3, 20 ng/50 µL MET, 50 ng/50 µL MET, 100 ng/50 µL MET; 250 ng/50 µL Casein for 200 ng/50 µL CK2-alpha1, 200 ng/50 µL PLK1; 1000 ng/50 µL Casein for 200 ng/50 µL PLK1, 200 ng/50 µL CK2-alpha1; 1000 ng/50 µLGSK3 (14–27) for 100 ng/50 µL AKT1; 125 ng/50 µL p53-CTM for 150 ng/50 µL CK2-alpha1, 200 ng/50 µLCK2-alpha1; 250 ng/50 µL MEK-KM for 20 ng/50 µL B-RAF-VE; autophosphorylation at ARK5, COT and SAK. After incubation (80 min, 30 °C) the reaction was stopped by adding 50 µL 2% (v/v) phosphoric acid to the reaction mixture. The microplate was washed twice with 200 µL 0.9% (v/v) saturated sodium chloride or water. The measured radioactivity, conditioned by the incorporation of [γ-^33P]-phosphate, is proportional to kinase activity. Furthermore, low control and high control were measured to determine the residual activity (%). As low controls, mixtures with substrate, but without enzyme were used to determine the unspecific binding of [γ-^33P]-phosphate to the well plate. Mixtures with enzyme, but without inhibitor were used as high controls to determine maximum enzyme activity. The IC50-values of the distinct compounds were calculated with Quattro Workflow V1.1.0.8 (Quattro Research GmbH, München, Germany). Dose response curves were generated by measurement of the residual activity of ten different inhibitor concentrations (0.1 mM, 30.0 µM, 10 µM, 3.0 µM, 1.0 µM, 0.3 µM, 0.1 µM, 30.0 nM, 10.0 nM and 3.0 nM). […]

For the next data set, the target named is T2, VEGF-R2 (Homo sapiens, UniProt P35968).
T2 construct: host or cells: Sf9 (baculovirus)
Put plainly: radiometric 33PanQinase protein kinase assay. Format: biochemical. To be noted: radiometric assay, 1 µM ATP. The protocol:
as §1, §2

The next data set concerns the target T3, VEGF-R3 (Homo sapiens, UniProt P35916).
T3 construct: host or cells: Sf9 (baculovirus)
In words: radiometric 33PanQinase protein kinase assay. It is filed as biochemical. To be noted: radiometric assay, 1 µM ATP. As for the experimental part: as §1, §2

In a further data set the target is T4, Aurora-A (Homo sapiens, UniProt O14965).
T4 construct: host or cells: Sf9 (baculovirus)
T4 sequence (O14965 1-403): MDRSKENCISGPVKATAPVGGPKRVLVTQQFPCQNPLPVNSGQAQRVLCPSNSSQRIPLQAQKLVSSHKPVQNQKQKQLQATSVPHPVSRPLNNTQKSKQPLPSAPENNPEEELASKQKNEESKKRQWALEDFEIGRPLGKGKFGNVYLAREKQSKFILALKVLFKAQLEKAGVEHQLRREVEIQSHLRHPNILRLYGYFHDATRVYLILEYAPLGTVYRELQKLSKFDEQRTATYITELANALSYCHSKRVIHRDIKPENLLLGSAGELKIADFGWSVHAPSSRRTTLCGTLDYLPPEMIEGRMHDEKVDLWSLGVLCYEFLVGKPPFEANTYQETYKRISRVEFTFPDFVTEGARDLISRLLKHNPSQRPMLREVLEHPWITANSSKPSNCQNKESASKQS
Put plainly: radiometric 33PanQinase protein kinase assay. It is filed as biochemical. To be noted: radiometric assay, 1 µM ATP. As for the experimental part:
as §1, §2

What is called IC50 is the concentration at which inhibition is half-maximal. As usually defined, the kinetic solubility is solubility judged after dilution from a stock solution rather than from solid. The term Ki denotes the dissociation constant of the complex between target and ligand, obtained from inhibition or displacement.

Values after ≈ are worked out from the molar mass of the structure shown.

T3 sequence (P35916 25-1363): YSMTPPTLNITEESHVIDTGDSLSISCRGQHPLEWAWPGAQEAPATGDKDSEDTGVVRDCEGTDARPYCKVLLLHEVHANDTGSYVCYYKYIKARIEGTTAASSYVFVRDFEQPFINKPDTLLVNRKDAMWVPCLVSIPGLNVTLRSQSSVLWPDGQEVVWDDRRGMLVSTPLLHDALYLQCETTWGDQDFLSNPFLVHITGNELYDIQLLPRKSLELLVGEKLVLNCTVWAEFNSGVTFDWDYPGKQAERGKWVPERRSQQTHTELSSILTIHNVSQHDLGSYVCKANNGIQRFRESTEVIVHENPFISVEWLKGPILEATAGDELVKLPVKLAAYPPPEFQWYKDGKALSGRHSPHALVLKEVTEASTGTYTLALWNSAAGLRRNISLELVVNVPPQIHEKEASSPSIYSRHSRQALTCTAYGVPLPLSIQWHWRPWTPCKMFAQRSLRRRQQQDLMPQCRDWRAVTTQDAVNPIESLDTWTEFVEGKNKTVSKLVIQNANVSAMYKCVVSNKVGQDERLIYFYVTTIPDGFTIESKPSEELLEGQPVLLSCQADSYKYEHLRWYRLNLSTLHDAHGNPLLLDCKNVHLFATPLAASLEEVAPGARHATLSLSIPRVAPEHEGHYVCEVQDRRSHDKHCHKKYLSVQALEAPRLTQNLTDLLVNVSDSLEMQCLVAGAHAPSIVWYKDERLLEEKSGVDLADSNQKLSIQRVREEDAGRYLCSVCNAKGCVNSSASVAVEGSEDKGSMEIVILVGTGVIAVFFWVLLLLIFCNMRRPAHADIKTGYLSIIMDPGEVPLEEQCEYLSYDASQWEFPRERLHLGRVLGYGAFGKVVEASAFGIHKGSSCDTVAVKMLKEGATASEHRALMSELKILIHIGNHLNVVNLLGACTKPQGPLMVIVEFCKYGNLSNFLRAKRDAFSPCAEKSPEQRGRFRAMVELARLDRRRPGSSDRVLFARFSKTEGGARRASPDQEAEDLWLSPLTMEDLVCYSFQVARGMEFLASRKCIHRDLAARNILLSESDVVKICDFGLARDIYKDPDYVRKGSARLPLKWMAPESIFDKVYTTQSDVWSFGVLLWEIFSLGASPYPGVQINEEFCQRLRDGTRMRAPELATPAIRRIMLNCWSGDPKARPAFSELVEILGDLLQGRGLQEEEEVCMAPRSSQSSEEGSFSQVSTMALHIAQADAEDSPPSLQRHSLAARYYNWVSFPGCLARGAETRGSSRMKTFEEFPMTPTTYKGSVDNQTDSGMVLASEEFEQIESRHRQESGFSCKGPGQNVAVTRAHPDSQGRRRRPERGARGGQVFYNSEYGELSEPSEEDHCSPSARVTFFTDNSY
T1 sequence (Q96GD4 whole entry): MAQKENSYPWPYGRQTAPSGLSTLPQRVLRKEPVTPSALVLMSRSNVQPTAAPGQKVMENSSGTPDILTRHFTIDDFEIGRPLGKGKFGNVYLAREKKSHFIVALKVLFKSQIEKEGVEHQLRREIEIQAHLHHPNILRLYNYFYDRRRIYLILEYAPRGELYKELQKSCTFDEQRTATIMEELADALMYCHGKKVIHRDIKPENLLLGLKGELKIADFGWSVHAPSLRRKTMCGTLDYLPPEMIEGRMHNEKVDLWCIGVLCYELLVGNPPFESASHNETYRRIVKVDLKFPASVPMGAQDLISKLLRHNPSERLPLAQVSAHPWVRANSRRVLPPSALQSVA
T2 sequence (P35968 20-1356): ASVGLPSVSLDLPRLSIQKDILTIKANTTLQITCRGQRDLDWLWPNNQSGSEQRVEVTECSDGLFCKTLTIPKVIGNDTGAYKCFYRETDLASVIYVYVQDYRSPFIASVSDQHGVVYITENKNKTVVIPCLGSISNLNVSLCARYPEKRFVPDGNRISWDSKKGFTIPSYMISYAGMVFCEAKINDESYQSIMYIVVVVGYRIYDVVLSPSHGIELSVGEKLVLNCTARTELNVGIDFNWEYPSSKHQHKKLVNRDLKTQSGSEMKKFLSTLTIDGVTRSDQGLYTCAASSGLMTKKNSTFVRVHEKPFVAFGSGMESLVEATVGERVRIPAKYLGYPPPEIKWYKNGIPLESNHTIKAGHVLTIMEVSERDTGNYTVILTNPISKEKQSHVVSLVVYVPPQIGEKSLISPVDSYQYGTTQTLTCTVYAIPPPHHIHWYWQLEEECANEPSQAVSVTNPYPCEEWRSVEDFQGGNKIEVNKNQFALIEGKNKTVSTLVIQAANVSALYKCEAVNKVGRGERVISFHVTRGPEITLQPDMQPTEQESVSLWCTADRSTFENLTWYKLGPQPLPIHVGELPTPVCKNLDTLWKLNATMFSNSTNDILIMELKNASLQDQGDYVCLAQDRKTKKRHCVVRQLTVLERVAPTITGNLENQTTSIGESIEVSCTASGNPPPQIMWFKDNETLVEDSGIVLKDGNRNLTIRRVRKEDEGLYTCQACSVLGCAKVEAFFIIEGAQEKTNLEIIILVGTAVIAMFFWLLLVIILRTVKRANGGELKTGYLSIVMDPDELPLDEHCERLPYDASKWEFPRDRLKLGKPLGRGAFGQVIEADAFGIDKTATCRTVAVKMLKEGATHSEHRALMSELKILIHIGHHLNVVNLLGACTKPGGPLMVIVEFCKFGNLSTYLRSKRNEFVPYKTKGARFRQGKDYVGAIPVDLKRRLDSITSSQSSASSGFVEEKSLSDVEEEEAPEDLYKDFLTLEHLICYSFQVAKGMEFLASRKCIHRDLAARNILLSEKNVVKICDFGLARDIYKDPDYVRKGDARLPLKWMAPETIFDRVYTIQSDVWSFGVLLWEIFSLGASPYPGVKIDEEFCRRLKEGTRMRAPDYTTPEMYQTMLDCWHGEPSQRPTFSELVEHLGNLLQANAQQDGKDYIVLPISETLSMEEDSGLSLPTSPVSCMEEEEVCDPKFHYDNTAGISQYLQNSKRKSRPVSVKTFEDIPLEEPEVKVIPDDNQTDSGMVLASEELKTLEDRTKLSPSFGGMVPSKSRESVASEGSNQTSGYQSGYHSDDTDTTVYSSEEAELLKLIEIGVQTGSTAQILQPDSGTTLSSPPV

As to `COc1cc(Nc2ncc3c(n2)-c2ccc(Cl)cc2C(c2c(F)cccc2OC)=NC3)ccc1C(=O)O` [alisertib], the IC50 in the data set with Aurora A is 1.2 nM.
As for `O=C1CCCc2cc(-c3ccnc(Nc4cccc(O)c4)n3)ccc2N1` [Compound 2m, 7-[2-(3-Hydroxyanilino)pyrimidin-4-yl]-1,3,4,5-tetrahydro-2H-1-benzazepin-2-one], the kinetic solubility at 10 s in data set [1] came out at 112 µM (≈ 38.8 µg/mL). Besides, the half-maximal inhibitory concentration (IC50) on Aurora-B was 6700 nM; at VEGF-R2 it was 780 nM; on VEGF-R3, 540 nM; on Aurora-A, 1700 nM.
Consider `O=C(O)c1ccc(Nc2ncc3c(n2)-c2ccc(Cl)cc2C(c2c(F)cccc2F)=NC3)cc1` [MLN8054], for which the IC50 in the data set with Aurora A is […].
Take `Cc1nc(N)sc1-c1ccnc(Nc2ccc(N3CCOCC3)cc2)n1` [CYC116]: the Ki at Aurora A is […].
`O=C1CCCc2cc(-c3ccnc(Nc4cccc(OCCCNS(=O)(=O)N5CCOCC5)c4)n3)ccc2N1` [Compound 14b, N-{3-[3-((4-(2-Oxo-2,3,4,5-tetrahydro-1H-benzo[b]azepin-7-yl)pyrimidin-2-yl)amino)phenoxy]-propyl}morpholine-4-sulfonamide] registered a solubility (kinetic) at 10 s in data set [1] of 19.6 µM (≈ 10.8 µg/mL). This compound gave an IC50 on Aurora-A of 3000 nM.
Turning to `CC(=O)NCC(=O)N1C2CCC1c1cc(Nc3ncc(C(F)(F)F)c(NC4CCC4)n3)ccc12` (stereo not shown) [PF-03814735], in the data set on Aurora A, the IC50 was […].
`COc1ccc(Nc2nccc(-c3ccc4c(c3)CCCC(=O)N4)n2)cc1OCCCNS(=O)(=O)N1CCOCC1` [Compound 14f, N-{3-[2-Methoxy-5-((4-(2-oxo-2,3,4,5-tetrahydro-1H-benzo[b]azepin-7-yl)pyrimidin-2-yl)amino)phenoxy]-propyl}morpholine-4-sulfonamide] had a kinetic solubility at 10 s in data set [1] of 25 µM (≈ 14.6 µg/mL). Half-maximal inhibition on Aurora-A (IC50) required 2500 nM.
On the same counts, the results for `O=C1CCCc2cc(-c3ccnc(Nc4cccc(OCCCNS(=O)(=O)N5CCCC5)c4)n3)ccc2N1` [Compound 14c, N-{3-[3-((4-(2-Oxo-2,3,4,5-tetrahydro-1H-benzo[b]azepin-7-yl)pyrimidin-2-yl)amino)phenoxy]propyl}-pyrrolidine-1-sulfonamide] are 25.3 µM (≈ 13.6 µg/mL) and 4500 nM.
The corresponding values for `O=C1CCCc2cc(-c3ccnc(Nc4cccc(OCCCNS(=O)(=O)N5CCC5)c4)n3)ccc2N1` [Compound 14d, N-{3-[3-((4-(2-Oxo-2,3,4,5-tetrahydro-1H-benzo[b]azepin-7-yl)pyrimidin-2-yl)amino)phenoxy]propyl}-azetidine-1-sulfonamide] are 25.2 µM (≈ 13.2 µg/mL) and 1500 nM.
Regarding `COc1ccc(Nc2nccc(-c3ccc4c(c3)CCCC(=O)N4)n2)cc1OCCCNS(=O)(=O)N1CCC1` [Compound 14g, N-{3-[2-Methoxy-5-((4-(2-oxo-2,3,4,5-tetrahydro-1H-benzo[b]azepin-7-yl)pyrimidin-2-yl)amino)phenoxy]-propyl}azetidine-1-sulfonamide], the kinetic solubility at 10 s in data set [1] worked out at 34.2 µM (≈ 18.9 µg/mL). The IC50 against Aurora-A was determined as 820 nM.
